This note sets out measurements from US20100204131A1, “USE OF A PEPTIDE AS A THERAPEUTIC AGENT” (priority 2007, published 2010).

For one test, the system named is HIV-1IIIB. Nature of the test: HIV-1 antiviral assay in CEM-SS cells. As to conditions: CEM-SS cells infected with HIV-1IIIB.
Another test relates to HCMV strain AD169. Kind of test: HCMV plaque formation assay in MRC-5 cells. As to conditions: for inhibition of HCMV plaque formation as compared to the virus control: 10 micrograms per ml, MRC-5 cells, 7-10 days.
Another test deals with HUVEC. Kind of test: Endothelial tube formation assay. As to conditions: 10 micrograms per ml, 20 hours, average tubule length.
The next test has as its system IFNγ spleen cells. Kind of test: Th1/Th2 cytokine profiling assay: IFNγ. As to conditions: 10 micrograms per ml; spleen cells of Ovalbumin-immunized Balb/c mice restimulated with Ovalbumin 10 micrograms/ml; 72 hours; supernatant.
In another test the test system is IL-2 spleen cells. Kind of test: Th1/Th2 cytokine profiling assay: IL-2. As to conditions: 10 micrograms per ml; spleen cells of Ovalbumin-immunized Balb/c mice restimulated with Ovalbumin 10 micrograms/ml; 72 hours; supernatant.
Test [1] has as its system Primary Human endothelial cells (HUVEC). Kind of test: Endothelial cell migration assay. As to conditions: 10 micrograms per ml, 22 hours, transwell.
Method: Primary Human endothelial cells (HUVEC) were seeded in insert chambers with 3 micrometer pore size of multi-transwell plate for 6 hours at 37° C. in Endothelial Cell Basal Medium (EBM) supplemented with 0.1% bovine serum albumin. Thereafter, designated concentration of testing peptides -10 micrograms per ml—was added in duplicate wells. The endothelia were allowed to migrate for 22 hours at 37° C., then, migrated cells were fixed and stained with Hoechst 33342 dye. Images of 3 fields per insert were taken and the number of migrated cells per field were quantified using the ImageProPlus software. Data were analyzed for the average number of the migrated cells and standard deviation of six data points for each treatment condition. […] Statistic p values were computed using the Student's t-test.
Another test relates to TNF-a spleen cells. Kind of test: Th1/Th2 cytokine profiling assay: TNF-a. As to conditions: 10 micrograms per ml; spleen cells of Ovalbumin-immunized Balb/c mice restimulated with Ovalbumin 10 micrograms/ml; 72 hours; supernatant.
In the next test the test system is IL-4 spleen cells. Kind of test: Th1/Th2 cytokine profiling assay: IL-4. As to conditions: 10 micrograms per ml; spleen cells of Ovalbumin-immunized Balb/c mice restimulated with Ovalbumin 10 micrograms/ml; 72 hours; supernatant.
Test [2] relates to hepatitis B virus (HBV) ayw strain. Nature of the test: HBV experimental assay system (HepG2-2.2.15, TaqMan PCR). The format is cell-based. As to conditions: 10 micrograms per ml; HepG2-2.2.15 cells; six days; HBV DNA by TaqMan PCR. From the text:
HepG2-2.2.15 is a stable cell line containing the hepatitis B virus (HBV) ayw strain genome (ATCC Cat. No. CRL-11997). Antiviral compounds blocking any late step of viral replication such as transcription, translation, pregenome encapsidation, reverse transcription, particle assembly and release can be identified and characterized using this cell line. In this assay, an active compound will reduce the production of secreted HBV from cells, measured by utilizing real time quantitative PCR (TaqMan) assay to directly and accurately measure HBV DNA copies.
HepG2-2.2.15 cells were plated in 96-well microtiter plates. After 16-24 hours the confluent monolayer of HepG2-2.2.15 cells was washed and the medium was replaced with complete medium containing test peptides—10 micrograms per ml—in duplicate. […] Six days following the initial administration of the peptides, the cell culture supernatants was collected, treated with pronase and DNAse and then used in a real-time quantitative TaqMan PCR assay. The PCR-amplified HBV DNA was detected in real-time by monitoring increases in fluorescence signals that result from the exonucleolytic degradation of a quenched fluorescence probe molecule that hybridizes to the amplified HBV DNA. […] Antiviral activity was calculated from the reduction in HBV DNA levels (% virus control). […]
A general note: Quantitative PCR measures a nucleic acid by following its amplification.

Another test relates to IL-5 spleen cells. Nature of the test: Th1/Th2 cytokine profiling assay: IL-5. As to conditions: 10 micrograms per ml; spleen cells of Ovalbumin-immunized Balb/c mice restimulated with Ovalbumin 10 micrograms/ml; 72 hours; supernatant.

No end group written: not given here.

From the text for IFNγ spleen cells: (§1) The Balb/c mice (originated in 1923, it is a popular strain and is used in many different research disciplines. Also classified as an inbred from the production of 20 or more successive brother-sister matings, the Balb/c mouse is albino and small in size) were immunized on Days 1, 15, and 29 with Ovalbumin (Ovalbumin is the main protein found in egg white, commonly used to stimulate an immunological reaction in test animals) in PBS (5 micrograms/injection). On day 50, spleens of the mice were harvested (3 weeks after last boost with Ovalbumin). […] Thereafter, additional Ovalbumin was added to the cells at 10 micrograms/ml for in vitro restimulation of the cells. 72 hours later, cell supernatants were harvested and assayed using the Becton Dickinson Mouse Th1/Th2 Cytokine CBA Kit. This kit can be used to measure Interleukin-2 (IL-2), Interleukin-4 (IL-4), Interleukin-5 (IL-5), Interferon-γ (IFN-γ), and Tumor Necrosis Factor-α (TNF-α) protein levels in a single sample.
From the text for IL-2 spleen cells: (§2) The Balb/c mice (originated in 1923, it is a popular strain and is used in many different research disciplines. Also classified as an inbred from the production of 20 or more successive brother-sister matings, the Balb/c mouse is albino and small in size) were immunized on Days 1, 15, and 29 with Ovalbumin (Ovalbumin is the main protein found in egg white, commonly used to stimulate an immunological reaction in test animals) in PBS (5 micrograms/injection). On day 50, spleens of the mice were harvested (3 weeks after last boost with Ovalbumin). […] Thereafter, additional Ovalbumin was added to the cells at 10 micrograms/ml for in vitro restimulation of the cells. 72 hours later, cell supernatants were harvested and assayed using the Becton Dickinson Mouse Th1/Th2 Cytokine CBA Kit.
From the text for IL-4 spleen cells: as §2
From the text for IL-5 spleen cells: as §2
From the text for TNF-a spleen cells: as §1

Consider `Cc1cn([C@H]2C[C@H](N=[N+]=[N-])[C@@H](CO)O2)c(=O)[nH]c1=O` [AZT], for which the “antiviral activity of positive control compounds” value in the test with HIV-1IIIB was “expected levels of antiviral activity”.
In the case of `Nc1nc(O)c2ncn(COC(CO)CO)c2n1` [Ganciclovir, reference compound], in the test on HCMV strain AD169 (positive control, HCMV in MRC-5 cells), the “antiviral activity of positive control compound” value is reported as “expected levels of antiviral activity”.
Turning to `CC(C)(C)NC(=O)[C@@H]1CN(Cc2cccnc2)CCN1C[C@@H](O)C[C@@H](Cc1ccccc1)C(=O)N[C@H]1c2ccccc2C[C@H]1O` [indinavir], the “antiviral activity of positive control compounds” value in the test with HIV-1IIIB was “expected levels of antiviral activity”.
On to “Ala-Ser-Gln-Phe-Glu-Thr-Ser-OH (ASQFETS-OH) [peptide 2]”, for which the “inhibition of the tube formation of endothelial cells” value in the test on HUVEC was 27%. Moreover, the “IFNγ spleen cells; TH1 response (% of control)” value with IFNγ spleen cells is recorded as 94.7 % of control. The “IL-2 spleen cells (% of control)” value in the test on IL-2 spleen cells is listed as 72.5 % of control. Also, the “inhibition of HCMV plaque formation as compared to the virus control” value in the test with HCMV strain AD169 is listed as “did not inhibit”. Besides, the “inhibition of the migration of human endothelial cells” value in [1] worked out at 28%. The “TNF-a spleen cells; TH1 response (% of control)” value with TNF-a spleen cells is given as 110.7 % of control. Besides, in the test with IL-4 spleen cells, the “IL-4 spleen cells; TH2 response (% of control)” value is listed as 0.0 % of control. In [2], the “inhibition of HBV replication on tested liver cells” value is recorded as “no effect”. For the same compound, the “IL-5 spleen cells; TH2 response (% of control)” value in the test with IL-5 spleen cells was 57.6 % of control.
For the compound “Ser-Tyr-Ser-Met-Glu-His-Phe-Arg-Trp-Gly-Lys-Pro-Val-Gly-Lys-Lys-Arg-Arg-Pro-Val-Lys-Val-Tyr-Pro-OH (SYSMEHFRWGKPVGKKRRPVKVYP-OH) [peptide 1]”, the “inhibition of the tube formation of endothelial cells” value with HUVEC turned out to be 25%. Moreover, the “IFNγ spleen cells; TH1 response (% of control)” value with IFNγ spleen cells was 103.7 % of control. In the test with IL-2 spleen cells, the “IL-2 spleen cells (% of control)” value is 149.2 % of control. In the test on HCMV strain AD169, the “inhibition of HCMV plaque formation as compared to the virus control” value is given as “did not inhibit”. The “inhibition of the migration of human endothelial cells” value in test [1] is recorded as “did not inhibit”. In addition, the “TNF-a spleen cells; TH1 response (% of control)” value in the test with TNF-a spleen cells was 97.0 % of control. Further, the “IL-4 spleen cells; TH2 response (% of control)” value with IL-4 spleen cells was 132.1 % of control. Besides, the “inhibition of HBV replication on tested liver cells” value in test [2] was “no effect”. In addition, in the test with IL-5 spleen cells, the “IL-5 spleen cells; TH2 response (% of control)” value is on record as 82.6 % of control.
